In PubChem BioAssay (NCI):
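Assay format: 96-well plates, 48-hour exposure. GI50 is the concentration that inhibits growth by half. Definition used: TGI = concentration required for complete inhibition of growth.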

How the values were obtained:
Test in all cases: NCI tumour cell line growth inhibition, 48 h
[1] = test system: OVCAR-4 ovarian
[2] = test system: HOP-92 NSCLC
[3] = test system: HT29 colon
[4] = test system: RPMI-8226 leukemia
[5] = test system: NCI/ADR-RES ovarian
[6] = test system: SW-620 colon
[7] = test system: U251 CNS
[8] = test system: RXF 393 renal
[9] = test system: TK-10 renal
[10] = test system: SR leukemia
[11] = test system: SF-268 CNS
[12] = test system: SK-MEL-5 melanoma
[13] = test system: UACC-62 melanoma
[14] = test system: OVCAR-5 ovarian
[15] = test system: MALME-3M melanoma
[16] = test system: T-47D breast
[17] = test system: CAKI-1 renal
[18] = test system: NCI-H226 lung
[19] = test system: SF-539 CNS
[20] = test system: K-562 leukemia
[21] = test system: CCRF-CEM leukemia
[22] = test system: MDA-MB-231 breast
[23] = test system: SK-MEL-28 melanoma
[24] = test system: A498 renal
[25] = test system: SN12C renal
[26] = test system: ACHN renal
[27] = test system: LOX IMVI melanoma
[28] = test system: HS 578T breast
[29] = test system: SK-MEL-2 melanoma
[30] = test system: 786-0 renal
[31] = test system: HL-60(TB) leukemia
[32] = test system: OVCAR-8 ovarian
[33] = test system: SK-OV-3 ovarian
[34] = test system: HCT-15 colon
[35] = test system: A549 NSCLC
[36] = test system: MOLT-4 leukemia
[37] = test system: KM12 colon
[38] = test system: MCF7 breast
[39] = test system: NCI-H460 lung
[40] = test system: NCI-H522 lung
[41] = test system: HCT-116 colon
[42] = test system: EKVX NSCLC
[43] = test system: M14 melanoma
[44] = test system: OVCAR-3 ovarian
[45] = test system: DU-145 prostate
[46] = test system: UO-31 renal
[47] = test system: SNB-75 CNS
[48] = test system: IGROV1 ovarian
[49] = test system: SNB-19 CNS
[50] = test system: COLO 205 colon
[51] = test system: MDA-MB-435
[52] = test system: BT-549 breast
[53] = test system: HOP-62 NSCLC
[54] = test system: HCC-2998 colon
[55] = test system: SF-295 CNS
[56] = test system: UACC-257 melanoma

`O[C@@H]1CCCN1Cc1cc2cc3c(cc2c2cc(OCc4ccccc4)ccc12)OCO3` was tested, and the GI50 [1] was 5.45 µM, the TGI [1] was 20.3 µM and the GI50 [2] was 1.53 µM. The TGI [2] was 5.36 µM, the GI50 [3] was 1.94 µM and the TGI [3] was 5.09 µM. The GI50 [4] was 1.77 µM, the TGI [4] was 4.63 µM and the GI50 [5] was 6.12 µM. It also gave a TGI [5] of 21.7 µM, a GI50 [6] of 2.21 µM and a TGI [6] of 5.75 µM. It also gave a GI50 [7] of 3.58 µM, a TGI [7] of 14.8 µM and a GI50 [8] of 1.53 µM. The TGI [8] was 3.85 µM, the GI50 [9] was 5.85 µM and the TGI [9] was 19.8 µM. The GI50 [10] was 2.63 µM, the TGI [10] was 7.08 µM and the GI50 [11] was 4.78 µM. The TGI [11] was 20.1 µM, the GI50 [12] was 1.78 µM and the TGI [12] was 3.5 µM. It also gave a GI50 [13] of 1.97 µM, a TGI [13] of 3.68 µM and a GI50 [14] of 5.64 µM. The TGI [14] was 21.2 µM, the GI50 [15] was 2.37 µM and the TGI [15] was 5.44 µM. It also gave a GI50 [16] of 2.93 µM, a TGI [16] of 11.7 µM and a GI50 [17] of 3.42 µM. The TGI [17] was 12.6 µM, the GI50 [18] was 15.7 µM and the TGI [18] was 37.7 µM. The GI50 [19] was 3.19 µM, the TGI [19] was 10.4 µM and the GI50 [20] was 2.71 µM. It also gave a TGI [20] of 8.83 µM, a GI50 [21] of 4.35 µM and a TGI [21] of 14.4 µM. For the same compound, the GI50 [22] was 2.18 µM, the TGI [22] was 5.59 µM and the GI50 [23] was 1.78 µM. The TGI [23] was 3.85 µM, the GI50 [24] was 10.5 µM and the TGI [24] was 25.3 µM. The GI50 [25] was 3.6 µM, the TGI [25] was 20.3 µM and the GI50 [26] was 8.37 µM. It also gave a TGI [26] of 22 µM, a GI50 [27] of 1.8 µM and a TGI [27] of 3.44 µM. The GI50 [28] was 2.82 µM, the TGI [28] was 9.07 µM and the GI50 [29] was 2.23 µM. It also gave a TGI [29] of 4.79 µM, a GI50 [30] of 1.89 µM and a TGI [30] of 3.69 µM. The GI50 [31] was 1.94 µM, the TGI [31] was 4.13 µM and the GI50 [32] was 3.93 µM. The TGI [32] was 17.6 µM, the GI50 [33] was 12.2 µM and the TGI [33] was 25.7 µM. It also gave a GI50 [34] of 3.47 µM, a TGI [34] of 12.3 µM and a GI50 [35] of 3.69 µM. The TGI [35] was 14.8 µM, the GI50 [36] was 3.38 µM and the TGI [36] was 14.1 µM. The GI50 [37] was 3.2 µM, the TGI [37] was 8.95 µM and the GI50 [38] was 2.15 µM. For the same compound, the TGI [38] was 5.07 µM, the GI50 [39] was 2.6 µM and the TGI [39] was 7.38 µM. For the same compound, the GI50 [40] was 6.08 µM, the TGI [40] was 21.5 µM and the GI50 [41] was 2.1 µM. The TGI [41] was 5.16 µM, the GI50 [42] was 11.6 µM and the TGI [42] was 27.3 µM. For the same compound, the GI50 [43] was 1.81 µM, the TGI [43] was 3.35 µM and the GI50 [44] was 3.73 µM. It also gave a TGI [44] of 14.5 µM, a GI50 [45] of 5.24 µM and a TGI [45] of 21.8 µM. The GI50 [46] was 11.2 µM, the TGI [46] was 25.2 µM and the GI50 [47] was 5.92 µM. For the same compound, the TGI [47] was 19.7 µM, the GI50 [48] was 5.48 µM and the TGI [48] was 20.1 µM. The GI50 [49] was 6.23 µM, the TGI [49] was 21.4 µM and the GI50 [50] was 1.7 µM. The TGI [50] was 3.46 µM, the GI50 [51] was 2 µM and the TGI [51] was 4.29 µM. The GI50 [52] was 11 µM, the TGI [52] was 26.4 µM and the GI50 [53] was 5.78 µM. It also gave a TGI [53] of 18.9 µM, a GI50 [54] of 1.85 µM and a TGI [54] of 3.76 µM. It also gave a GI50 [55] of 1.95 µM, a TGI [55] of 4.23 µM and a GI50 [56] of 2.17 µM. It also gave a TGI [56] of 4.37 µM.
